# Data from patent publication US5998376A, “Substance P treatment for immunostimulation” (priority 1998, dated 1999).
# Assays:
# [1] = test system: lymphocyte subpopulations; experiment: Flow cytometric analyses (FACS) of immune organs, JP-8 exposed mice; format: in vivo, C57B16 mice
# Method: At 24 hours after the last exposure, the animals were sacrificed and the effects of exposure on the immune system examined. Immune organs (spleen, thymus, blood, lymph nodes and bone marrow) were recovered and analyzed for effects on organ weight, total cell numbers, immune cell populations (by differentials), and lymphocyte subpopulations (by flow cytometry). Assays were also performed to examine the effects of exposure on immune function. […] Similar effects on immune cell subpopulations were also observed in lymph nodes. In the thymus it appeared that the immature CD4^+ CD8^+ cells were differentially lost due to exposure. […] However, these effects are prevented or ameliorated by treatment of the animals with Substance P.
# Flow cytometric analyses (FACS): One- and two-color FACS analyses are performed using a Becton-Dickinson FACStar Plus flow cytometer. Cells are stained with the indicated monoclonal antibodies according to standard procedures (Harris et al., id). Cells alone and cells reacted with conjugated isotype control, irrelevant mAbs are used as controls. Data is presented as the percentage of cells staining positive for each individual mAb.
# [2] = test system: melanoma B16 cancer cells; experiment: B16 melanoma massive challenge, survival; format: in vivo, mice; details: tumor-challenged mammals, aerosol therapy
# From the text: The mice were infected with 1×10^5 […] melanoma B16 cancer cells by tail vein injection.
# [3] = JP-8 dose 1000 + SP or antagonist aerosol
# [4] = JP-8 dose 1000 + nSP (1 nanomolar substance P)
substance,measurement,setting,value
Substance P [SP],"BM CD3, cells staining positive",[1]; [3],14%
same,"BM CD4, cells staining positive",[1]; [3],9%
same,"BM CD8, cells staining positive",[1]; [3],2%
same,"BM CD45, cells staining positive",[1]; [3],31%
same,"BM MAC1, cells staining positive",[1]; [3],26%
same,"LN CD3, cells staining positive",[1]; [3],86%
same,"LN CD4, cells staining positive",[1]; [3],29%
same,"LN CD8, cells staining positive",[1]; [3],11%
same,"LN CD45, cells staining positive",[1]; [3],22%
same,"LN MAC1, cells staining positive",[1]; [3],0%
same,"PBL CD3, cells staining positive",[1]; [3],61%
same,"PBL CD4, cells staining positive",[1]; [3],23%
same,"PBL CD8, cells staining positive",[1]; [3],10%
same,"PBL CD45, cells staining positive",[1]; [3],22%
same,"PBL MAC1, cells staining positive",[1]; [3],3%
same,"Spleen CD3, cells staining positive",[1]; [3],34%
same,"Spleen CD4, cells staining positive",[1]; [3],18%
same,"Spleen CD8, cells staining positive",[1]; [3],10%
same,"Spleen CD45, cells staining positive",[1]; [3],20%
same,"Spleen MAC1, cells staining positive",[1]; [3],5%
same,"Thymus CD3, cells staining positive",[1]; [3],20%
same,"Thymus DN, cells staining positive",[1]; [3],10%
same,"Thymus DP, cells staining positive",[1]; [3],65%
same,"Thymus SP4, cells staining positive",[1]; [3],16%
same,"Thymus SP8, cells staining positive",[1]; [3],6%
same,"BM CD3, cells staining positive",[1]; [4],13%
same,"BM CD4, cells staining positive",[1]; [4],10%
same,"BM CD8, cells staining positive",[1]; [4],3%
same,"BM CD45, cells staining positive",[1]; [4],43%
same,"BM MAC1, cells staining positive",[1]; [4],16%
same,"LN CD3, cells staining positive",[1]; [4],95%
same,"LN CD4, cells staining positive",[1]; [4],42%
same,"LN CD8, cells staining positive",[1]; [4],25%
same,"LN CD45, cells staining positive",[1]; [4],23%
same,"LN MAC1, cells staining positive",[1]; [4],0%
same,"PBL CD3, cells staining positive",[1]; [4],78%
same,"PBL CD4, cells staining positive",[1]; [4],25%
same,"PBL CD8, cells staining positive",[1]; [4],8%
same,"PBL CD45, cells staining positive",[1]; [4],29%
same,"PBL MAC1, cells staining positive",[1]; [4],2%
same,"Spleen CD3, cells staining positive",[1]; [4],60%
same,"Spleen CD4, cells staining positive",[1]; [4],15%
same,"Spleen CD8, cells staining positive",[1]; [4],5%
same,"Spleen CD45, cells staining positive",[1]; [4],41%
same,"Spleen MAC1, cells staining positive",[1]; [4],1%
same,"Thymus CD3, cells staining positive",[1]; [4],25%
same,"Thymus DN, cells staining positive",[1]; [4],7%
same,"Thymus DP, cells staining positive",[1]; [4],69%
same,"Thymus SP4, cells staining positive",[1]; [4],16%
same,"Thymus SP8, cells staining positive",[1]; [4],7%
same,"BM CD3, cells staining positive",[1]; JP-8 dose 2500 + SP aerosol,6%
same,"BM CD4, cells staining positive",[1]; JP-8 dose 2500 + SP aerosol,3%
same,"BM CD8, cells staining positive",[1]; JP-8 dose 2500 + SP aerosol,6%
same,"BM CD45, cells staining positive",[1]; JP-8 dose 2500 + SP aerosol,24%
same,"BM MAC1, cells staining positive",[1]; JP-8 dose 2500 + SP aerosol,34%
same,"Spleen CD3, cells staining positive",[1]; JP-8 dose 2500 + SP aerosol,38%
same,"Spleen CD4, cells staining positive",[1]; JP-8 dose 2500 + SP aerosol,26%
same,"Spleen CD8, cells staining positive",[1]; JP-8 dose 2500 + SP aerosol,14%
same,"Spleen CD45, cells staining positive",[1]; JP-8 dose 2500 + SP aerosol,31%
same,"Spleen MAC1, cells staining positive",[1]; JP-8 dose 2500 + SP aerosol,3%
same,"Thymus CD3, cells staining positive",[1]; JP-8 dose 2500 + SP aerosol,16%
same,"Thymus DN, cells staining positive",[1]; JP-8 dose 2500 + SP aerosol,19%
same,"Thymus DP, cells staining positive",[1]; JP-8 dose 2500 + SP aerosol,64%
same,"Thymus SP4, cells staining positive",[1]; JP-8 dose 2500 + SP aerosol,15%
same,"Thymus SP8, cells staining positive",[1]; JP-8 dose 2500 + SP aerosol,5%
same,survival time,[2],enhance survival time
